Experimental data reported in ChEMBL document CHEMBL1136490, “Synthesis of non-immunosuppressive cyclophilin-Binding cyclosporin A derivatives as potential anti-HIV-1 drugs” (Bioorg Med Chem Lett, 2003).
pIC50: −log10 of the molar value.

How the values were obtained:
[1] = target: Peptidyl-prolyl cis-trans isomerase A (Homo sapiens, UniProt P62937); assay: Immunosuppressive activity was measured by inhibition of the IL-2 production in Jurkat cells.; type: functional, cell-based
[2] = target: Human immunodeficiency virus type 1 reverse transcriptase (Human immunodeficiency virus 1, UniProt Q72547); assay: In vitro inhibitory activity against HIV-1 RT in CEM4 cell line; type: cell-based

Sequence of Peptidyl-prolyl cis-trans isomerase A (P62937 whole entry): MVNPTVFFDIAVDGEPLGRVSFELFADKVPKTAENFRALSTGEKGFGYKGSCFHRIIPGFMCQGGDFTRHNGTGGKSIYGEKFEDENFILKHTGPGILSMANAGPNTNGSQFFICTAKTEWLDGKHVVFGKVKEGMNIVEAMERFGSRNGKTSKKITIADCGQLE

Structure (SMILES) | pIC50 [1] | pIC50 [2]
C/C=C/C[C@@H](C)[C@@H](O)[C@H]1C(=O)N[C@@H](CC)C(=O)N(C)[C@H](SCCO)C(=O)N(C)[C@@H](CC(C)(C)O)C(=O)N[C@@H](C(C)C)C(=O)N(C)[C@@H](CC(C)C)C(=O)N[C@@H](C)C(=O)N[C@H](C)C(=O)N(C)[C@@H](CC(C)C)C(=O)N(C)[C@@H](CC(C)C)C(=O)N(C)[C@@H](C(C)C)C(=O)N1C | 6.02 | 7.10
C/C=C/C[C@@H](C)[C@@H](O)[C@H]1C(=O)N[C@@H](CC)C(=O)N(C)[C@H](SCCN(C)C(C)(C)C)C(=O)N(C)[C@@H](CC(C)(C)O)C(=O)N[C@@H](C(C)C)C(=O)N(C)[C@@H](CC(C)C)C(=O)N[C@@H](C)C(=O)N[C@H](C)C(=O)N(C)[C@@H](CC(C)C)C(=O)N(C)[C@@H](CC(C)C)C(=O)N(C)[C@@H](C(C)C)C(=O)N1C | 5.80 | 7.37
C/C=C/C[C@@H](C)[C@@H](O)[C@H]1C(=O)N[C@@H](CC)C(=O)N(C)CC(=O)N(C)[C@@H](C[C@@H](C)CC)C(=O)N[C@@H](C(C)C)C(=O)N(C)[C@@H](CC(C)C)C(=O)N[C@@H](C)C(=O)N[C@H](C)C(=O)N(C)[C@@H](CC(C)C)C(=O)N(C)[C@@H](CC(C)C)C(=O)N(C)[C@@H](C(C)C)C(=O)N1C | 6.03 | 6.53
C/C=C/C[C@@H](C)[C@@H](O)[C@H]1C(=O)N[C@@H](CC)C(=O)N(C)[C@H](SCCN(C)C)C(=O)N(C)[C@@H](CC(C)(C)O)C(=O)N[C@@H](C(C)C)C(=O)N(C)[C@@H](CC(C)C)C(=O)N[C@@H](C)C(=O)N[C@H](C)C(=O)N(C)[C@@H](CC(C)C)C(=O)N(C)[C@@H](CC(C)C)C(=O)N(C)[C@@H](C(C)C)C(=O)N1C [SCY 635] |  | 7.35
C/C=C/C[C@@H](C)[C@@H](O)[C@H]1C(=O)N[C@@H](CC)C(=O)N(C)[C@H](SCCN2CCCCC2)C(=O)N(C)[C@@H](CC(C)C)C(=O)N[C@@H](C(C)C)C(=O)N(C)[C@@H](CC(C)C)C(=O)N[C@@H](C)C(=O)N[C@H](C)C(=O)N(C)[C@@H](CC(C)C)C(=O)N(C)[C@@H](CC(C)C)C(=O)N(C)[C@@H](C(C)C)C(=O)N1C | 7.01 | 7.14
C/C=C/C[C@@H](C)[C@@H](O)[C@H]1C(=O)N[C@@H](CC)C(=O)N(C)[C@H](SCCN(CC)CC)C(=O)N(C)[C@@H](CC(C)(C)O)C(=O)N[C@@H](C(C)C)C(=O)N(C)[C@@H](CC(C)C)C(=O)N[C@@H](C)C(=O)N[C@H](C)C(=O)N(C)[C@@H](CC(C)C)C(=O)N(C)[C@@H](CC(C)C)C(=O)N(C)[C@@H](C(C)C)C(=O)N1C | 5.22 | 7.33
C/C=C/C[C@@H](C)[C@@H](O)[C@H]1C(=O)N[C@@H](CC)C(=O)N(C)[C@H](SCCO)C(=O)N(C)[C@@H](CC(C)C)C(=O)N[C@@H](C(C)C)C(=O)N(C)[C@@H](CC(C)C)C(=O)N[C@@H](C)C(=O)N[C@H](C)C(=O)N(C)[C@@H](CC(C)C)C(=O)N(C)[C@@H](CC(C)C)C(=O)N(C)[C@@H](C(C)C)C(=O)N1C | 7.72 | 7.15
C/C=C/C[C@@H](C)[C@@H](O)[C@H]1C(=O)N[C@@H](CC)C(=O)N(C)[C@H](SCCN2CCOCC2)C(=O)N(C)[C@@H](CC(C)C)C(=O)N[C@@H](C(C)C)C(=O)N(C)[C@@H](CC(C)C)C(=O)N[C@@H](C)C(=O)N[C@H](C)C(=O)N(C)[C@@H](CC(C)C)C(=O)N(C)[C@@H](CC(C)C)C(=O)N(C)[C@@H](C(C)C)C(=O)N1C | 6.89 | 7.00
C/C=C/C[C@@H](C)[C@@H](O)[C@H]1C(=O)N[C@@H](CC)C(=O)N(C)[C@H](SCCN(C)C(C)C)C(=O)N(C)[C@@H](CC(C)C)C(=O)N[C@@H](C(C)C)C(=O)N(C)[C@@H](CC(C)C)C(=O)N[C@@H](C)C(=O)N[C@H](C)C(=O)N(C)[C@@H](CC(C)C)C(=O)N(C)[C@@H](CC(C)C)C(=O)N(C)[C@@H](C(C)C)C(=O)N1C | 7.21 | 7.71
C/C=C/C[C@@H](C)[C@@H](O)[C@H]1C(=O)N[C@@H](CC)C(=O)N(C)[C@H](SC)C(=O)N(C)[C@@H](CC(C)(C)O)C(=O)N[C@@H](C(C)C)C(=O)N(C)[C@@H](CC(C)C)C(=O)N[C@@H](C)C(=O)N[C@H](C)C(=O)N(C)[C@@H](CC(C)C)C(=O)N(C)[C@@H](CC(C)C)C(=O)N(C)[C@@H](C(C)C)C(=O)N1C | 6.96 | 7.08
C/C=C/C[C@@H](C)[C@@H](O)[C@H]1C(=O)N[C@@H](CC)C(=O)N(C)[C@H](SC)C(=O)N(C)[C@@H](CC(C)C)C(=O)N[C@@H](C(C)C)C(=O)N(C)[C@@H](CC(C)C)C(=O)N[C@@H](C)C(=O)N[C@H](C)C(=O)N(C)[C@@H](CC(C)C)C(=O)N(C)[C@@H](CC(C)C)C(=O)N(C)[C@@H](C(C)C)C(=O)N1C | 8.52 | 7.18
C/C=C/C[C@@H](C)[C@@H](O)[C@H]1C(=O)N[C@@H](CC)C(=O)N(C)[C@H](SCCN(CC)CC)C(=O)N(C)[C@@H](CC(C)C)C(=O)N[C@@H](C(C)C)C(=O)N(C)[C@@H](CC(C)C)C(=O)N[C@@H](C)C(=O)N[C@H](C)C(=O)N(C)[C@@H](CC(C)C)C(=O)N(C)[C@@H](CC(C)C)C(=O)N(C)[C@@H](C(C)C)C(=O)N1C | 7.82 | 8.60
C/C=C/C[C@@H](C)[C@@H](O)[C@H]1C(=O)N[C@@H](CC)C(=O)N(C)[C@H](SCCN2CCCCC2)C(=O)N(C)[C@@H](CC(C)(C)O)C(=O)N[C@@H](C(C)C)C(=O)N(C)[C@@H](CC(C)C)C(=O)N[C@@H](C)C(=O)N[C@H](C)C(=O)N(C)[C@@H](CC(C)C)C(=O)N(C)[C@@H](CC(C)C)C(=O)N(C)[C@@H](C(C)C)C(=O)N1C | 6.05 | 7.71
C/C=C/C[C@@H](C)[C@@H](O)[C@H]1C(=O)N[C@@H](CC)C(=O)N(C)[C@H](CO)C(=O)N(C)[C@@H](CC(C)(C)O)C(=O)N[C@@H](C(C)C)C(=O)N(C)[C@@H](CC(C)C)C(=O)N[C@@H](C)C(=O)N[C@H](C)C(=O)N(C)[C@@H](CC(C)C)C(=O)N(C)[C@@H](CC(C)C)C(=O)N(C)[C@@H](C(C)C)C(=O)N1C | 6.11 | 
C/C=C/C[C@@H](C)[C@@H](O)C1C(=O)N[C@@H](CC)C(=O)N(C)CC(=O)N(C)[C@@H](CC(C)(C)O)C(=O)N[C@@H](C(C)C)C(=O)N(C)[C@@H](CC(C)C)C(=O)N[C@@H](C)C(=O)N[C@H](C)C(=O)N(C)[C@@H](CC(C)C)C(=O)N(C)[C@@H](CC(C)C)C(=O)N(C)[C@@H](C(C)C)C(=O)N1C (stereo not given in full) |  | 6.86
C/C=C/C[C@@H](C)[C@@H](O)[C@H]1C(=O)N[C@@H](CC)C(=O)N(C)[C@H](SCCN(C)C(C)(C)C)C(=O)N(C)[C@@H](CC(C)C)C(=O)N[C@@H](C(C)C)C(=O)N(C)[C@@H](CC(C)C)C(=O)N[C@@H](C)C(=O)N[C@H](C)C(=O)N(C)[C@@H](CC(C)C)C(=O)N(C)[C@@H](CC(C)C)C(=O)N(C)[C@@H](C(C)C)C(=O)N1C | 6.56 | 7.62
C/C=C/C[C@@H](C)[C@@H](O)[C@H]1C(=O)N[C@@H](CC)C(=O)N(C)[C@H](SCCn2ccnc2)C(=O)N(C)[C@@H](CC(C)C)C(=O)N[C@@H](C(C)C)C(=O)N(C)[C@@H](CC(C)C)C(=O)N[C@@H](C)C(=O)N[C@H](C)C(=O)N(C)[C@@H](CC(C)C)C(=O)N(C)[C@@H](CC(C)C)C(=O)N(C)[C@@H](C(C)C)C(=O)N1C | 6.78 | 7.09
C/C=C/C[C@@H](C)[C@@H](O)[C@H]1C(=O)N[C@@H](CC)C(=O)N(C)CC(=O)N(C)[C@@H](CC(C)(C)O)C(=O)N[C@@H](C(C)C)C(=O)N(C)[C@@H](CC(C)C)C(=O)N[C@@H](C)C(=O)N[C@H](C)C(=O)N(C)[C@@H](CC(C)C)C(=O)N(C)[C@@H](CC(C)C)C(=O)N(C)[C@@H](C(C)C)C(=O)N1C | 6.78 | 
C/C=C/C[C@@H](C)[C@@H](O)C1C(=O)N[C@@H](CC)C(=O)N(C)[C@H](CO)C(=O)N(C)[C@@H](CC(C)(C)O)C(=O)N[C@@H](C(C)C)C(=O)N(C)[C@@H](CC(C)C)C(=O)N[C@@H](C)C(=O)N[C@H](C)C(=O)N(C)[C@@H](CC(C)C)C(=O)N(C)[C@@H](CC(C)C)C(=O)N(C)[C@@H](C(C)C)C(=O)N1C (stereo not given in full) |  | 7.02
C/C=C/C[C@@H](C)[C@@H](O)[C@H]1C(=O)N[C@@H](CC)C(=O)N(C)[C@H](SCCN(C)C)C(=O)N(C)[C@@H](CC(C)C)C(=O)N[C@@H](C(C)C)C(=O)N(C)[C@@H](CC(C)C)C(=O)N[C@@H](C)C(=O)N[C@H](C)C(=O)N(C)[C@@H](CC(C)C)C(=O)N(C)[C@@H](CC(C)C)C(=O)N(C)[C@@H](C(C)C)C(=O)N1C | 7.33 | 7.46
